Data on nine compounds can be found in paper PMC8448677, “A novel assay based on pre-equilibrium titration curves for the determination of enzyme inhibitor binding kinetics” (European Biophysics Journal, 2021).

For orientation: Ki means the equilibrium dissociation constant of an inhibitor or competing ligand from its target.

Molecules are shown by their SMILES. Starred links: 1 amine or outer side, 2 acyl side, 3 side chain; linkers in the order of their positions; H or OH if unused. Positions of bridges follow the written chain, without caps; N, C: chain ends. Non-standard residues stand in square brackets, D forms with d. Residues, ends and D or L forms follow the SMILES beside them. TBMB = c1c(C[*:1])cc(C[*:3])cc1C[*:2]; NMeR = CN[C@@H](CCCNC(=N)N)C(=O)O; hArg = N=C(N)NCCCC[C@H](N)C(=O)O; Aze = O=C(O)[C@@H]1CCN1; Sar = CNCC(=O)O

In one assay the target is T1, Human PKal (plasma kallikrein) (Homo sapiens, UniProt P03952).
T1 construct: purchased Molecular Innovations HPKA
T1 sequence (P03952 391-638 limits assumed): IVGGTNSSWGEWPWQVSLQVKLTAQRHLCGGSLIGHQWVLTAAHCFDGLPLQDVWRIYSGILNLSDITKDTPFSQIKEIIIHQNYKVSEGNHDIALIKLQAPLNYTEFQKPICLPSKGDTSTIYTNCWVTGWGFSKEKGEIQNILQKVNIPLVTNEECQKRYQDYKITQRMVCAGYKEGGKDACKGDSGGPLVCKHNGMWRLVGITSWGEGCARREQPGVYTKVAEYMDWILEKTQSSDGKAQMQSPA
T1 sequence (P03952 20-390 partner limits assumed): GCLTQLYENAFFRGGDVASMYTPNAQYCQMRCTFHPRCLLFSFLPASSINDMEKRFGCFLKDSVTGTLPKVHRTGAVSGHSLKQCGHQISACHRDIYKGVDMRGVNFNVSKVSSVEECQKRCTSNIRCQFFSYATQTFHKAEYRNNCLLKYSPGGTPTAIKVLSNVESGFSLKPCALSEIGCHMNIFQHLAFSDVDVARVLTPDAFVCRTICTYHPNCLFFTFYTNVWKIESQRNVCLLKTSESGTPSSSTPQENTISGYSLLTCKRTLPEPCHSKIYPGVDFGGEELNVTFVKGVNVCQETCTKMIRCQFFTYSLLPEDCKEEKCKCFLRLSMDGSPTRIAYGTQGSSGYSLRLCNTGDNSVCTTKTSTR
Description: Pre-equilibrium titration curve inhibition assay of plasma kallikrein (fluorogenic substrate H-Pro-Phe-Arg-AMC, global fit with Eq. 7). The settings on record: Ki = koff/kon from pre-equilibrium curves, 25 °C, pH 7.5, PKal 1 nM (0.25 nM for 4b), mean ± SD of at least 3 independent measurements, read-out: Ki. The format is biochemical. The protocol: The TBMB-based bicyclic peptide inhibitors of PKal used in this study are listed in Table 1, some of which have been described previously (Teufel et al. [2018]). Experiments were performed at 25 °C in 20 mM Tris–HCl, 150 mM NaCl, 1 mM EDTA, 0.1% PEG-6000, 0.1% Triton X-100, pH 7.5. Human PKal (Molecular Innovations, cat. HPKA, typical nominal concentration 1 nM for all peptides except 0.25 nM for peptide 4b) was pre-incubated in 96-well plates with different concentrations of the tested peptide (typically a serial twofold dilution plus a control with no peptide) in a reaction volume of 90 µL. At different timepoints, the fluorogenic substrate H-Pro-Phe-Arg-AMC (Bachem, cat. I-1295.0050, 10 µL, 20 µM final) was added to the relevant wells, and the increase in fluorescence at 480 nm (with excitation at 360 nm) was recorded using a Spectramax M2e plate reader (Molecular Devices). Initial rates of substrate hydrolysis were obtained by linear fit of the raw fluorescence vs. time traces. In addition, fluorescence was recorded ensuring that no more than 10% of the substrate were hydrolyzed, and for periods of time (typically 30–60 s) short enough to obtain linear traces. The data were plotted as the initial rate of substrate hydrolysis vs. peptide concentration for the different times of incubation prior to substrate addition (as shown in Fig. 3) and analyzed using Eq. 7.
To compute unique values of kon and koff, data sets such as those of Fig. 3 must be analyzed “globally”, i.e., considering all pre-equilibrium inhibition curves as a unique data set, as allowed by modern nonlinear regression analysis software’s. In this study, we used GraphPad Prism ver. 5.02 (GraphPad Software Inc., La Jolla, CA) applying equal weighting (i.e., performing minimization based on absolute distances squared), and we invite the reader to consult the software’s user’s manual for a detailed description of how global fitting of such data sets can be performed (https://cdn.graphpad.com/faq/2/file/Prism_v5_Regression_Guide.pdf). One point to highlight is that the parameters kon, koff and E0 should be “shared”, to employ the terminology used in GraphPad Prism, i.e., that one unique value of these parameters is used to fit the data. […] As discussed previously for the analysis of data obtained under equilibrium, i.e., using Eq. 1 (see Teufel et al. [2018]), the term E0 in Eq. 7 can be treated as a shared but adjustable parameter or, as here, fixed to its known value. The terms v0, kon and koff, by contrast, always need to be treated as adjustable parameters. Finally, the knowledge of the kinetic parameters kon and koff enables calculation of the equilibrium inhibition constant Ki (Ki = koff/kon).
In the case of H-Pro-Phe-Arg-AMC, however, the Km for human PKal is large (Teufel et al. [2018]) and experiments were performed under conditions where [S] < < Km. Therefore, the values for kon, koff and Ki reported here can be considered as representing actual values.
In the case of `CC(=O)N[C@H]1CSCc2cc3cc(c2)CSC[C@H](NC(=O)[C@H](Cc2c[nH]c4ccccc24)NC(=O)[C@@H]2CCCN2C(=O)[C@H](CC(N)=O)NC(=O)[C@H](Cc2c[nH]c4ccccc24)NC(=O)[C@H]([C@@H](C)O)NC(=O)[C@H](CC(N)=O)NC1=O)C(=O)N1CCC[C@H]1C(=O)N[C@@H](Cc1c[nH]c2ccccc12)C(=O)N[C@@H](CC(=O)O)C(=O)N[C@@H](C)C(=O)N1CCC[C@H]1C(=O)N[C@@H](CC(C)C)C(=O)N[C@H](C(=O)N[C@@H](C)C(=O)N(C)CC(=O)N(C)CC(=O)N(C)CC(=O)N[C@H](CCCNC(=N)N)C(=O)N[C@H](CCCNC(=N)N)C(N)=O)CSC3` [Peptide 1b] (Ac-CNTWNPWCPWDAPLCA[Sar][Sar][Sar][dR][dR]-NH2; linker 1-8-15 via TBMB), the Ki came out at 1.8 ± 0.2 nM. On to `CC(=O)N[C@H]1CSCc2cc3cc(c2)CSC[C@H](NC(=O)[C@H](CCCNC(=N)N)NC(=O)[C@H](C)NC(=O)[C@@H]2CCCN2C(=O)[C@H](Cc2c[nH]c4ccccc24)NC(=O)[C@H](CO)NC1=O)C(=O)N[C@@H](CC(C)C)C(=O)N[C@@H](Cc1c[nH]cn1)C(=O)N[C@@H](CCC(N)=O)C(=O)N[C@@H](CC(=O)O)C(=O)N[C@@H](CC(C)C)C(=O)N[C@H](C(N)=O)CSC3` [Peptide 2b] (Ac-CSWPARCLHQDLC-NH2; linker 1-7-13 via TBMB), for which the Ki stood at 0.1 ± 0.02 nM. `CC(=O)N[C@H]1CSCc2cc3cc(c2)CSC[C@H](NC(=O)[C@H](CCCNC(=N)N)NC(=O)[C@H](Cc2ccc(O)cc2)NC(=O)[C@@H]2CCCN2C(=O)[C@H](Cc2ccccc2)NC(=O)[C@H](CO)NC1=O)C(=O)N[C@@H](CC(C)C)C(=O)N[C@@H](Cc1c[nH]cn1)C(=O)N[C@@H](CCC(N)=O)C(=O)N[C@@H](CC(=O)O)C(=O)N[C@@H](CC(C)C)C(=O)N[C@H](C(N)=O)CSC3` [Peptide 2c] (Ac-CSFPYRCLHQDLC-NH2; linker 1-7-13 via TBMB): the Ki is 0.34 ± 0.04 nM.

As to `CC(=O)N[C@H]1CSCc2cc3cc(c2)CSC[C@H](NC(=O)[C@H](CCCCNC(=N)N)NC(=O)[C@H](Cc2ccc(O)cc2)NC(=O)[C@@H]2CCN2C(=O)[C@H](Cc2ccccc2)NC(=O)[C@H](CO)NC1=O)C(=O)N[C@@H](C)CN[C@@H](Cc1c[nH]cn1)C(=O)N[C@@H](CCC(N)=O)C(=O)N[C@@H](CC(=O)O)C(=O)N[C@@H](CC(C)C)C(=O)N[C@H](C(N)=O)CSC3` [Peptide 2d], the Ki came to 0.22 ± 0.04 nM. For the compound `CC(=O)N[C@H]1CSCc2cc3cc(c2)CSC[C@H](NC(=O)[C@H](CCCNC(=N)N)NC(=O)[C@H](Cc2ccc(O)cc2)NC(=O)[C@@H]2CCCN2C(=O)[C@H](Cc2ccccc2)NC(=O)[C@H](CO)NC1=O)C(=O)N[C@@H](CC(C)C)C(=O)N[C@@H](Cc1c[nH]cn1)C(=O)N[C@@H](CCC(N)=O)C(=O)N[C@@H](CC(=O)O)C(=O)N[C@@H](CC(C)C)C(=O)N[C@H](C(N)=O)CSC3` [Peptide 5a] (Ac-CSFPYRCLHQDLC-NH2; linker 1-7-13 via TBMB), the Ki is 0.36 ± 0.06 nM.

In the case of `CC(=O)N[C@H]1CSCc2cc3cc(c2)CSC[C@H](NC(=O)[C@H](CCCCNC(=N)N)NC(=O)[C@H](Cc2ccc(O)cc2)NC(=O)[C@@H]2CCCN2C(=O)[C@H](Cc2ccccc2)NC(=O)[C@H](CO)NC1=O)C(=O)N[C@@H](CC(C)C)C(=O)N[C@@H](Cc1c[nH]cn1)C(=O)N[C@@H](CCC(N)=O)C(=O)N[C@@H](CC(=O)O)C(=O)N[C@@H](CC(C)C)C(=O)N[C@H](C(N)=O)CSC3` [Peptide 5b] (Ac-CSFPY[hArg]CLHQDLC-NH2; linker 1-7-13 via TBMB), the Ki was found to be 0.53 ± 0.07 nM. In the case of `CC(=O)N[C@H]1CSCc2cc3cc(c2)CSC[C@H](NC(=O)[C@H](CCCCNC(=N)N)NC(=O)[C@H](Cc2ccc(O)cc2)NC(=O)[C@@H]2CCN2C(=O)[C@H](Cc2ccccc2)NC(=O)[C@H](CO)NC1=O)C(=O)N[C@@H](CC(C)C)C(=O)N[C@@H](Cc1c[nH]cn1)C(=O)N[C@@H](CCC(N)=O)C(=O)N[C@@H](CC(=O)O)C(=O)N[C@@H](CC(C)C)C(=O)N[C@H](C(N)=O)CSC3` [Peptide 5c] (Ac-CSF[Aze]Y[hArg]CLHQDLC-NH2; linker 1-7-13 via TBMB), the Ki is 0.061 ± 0.027 nM.

In the case of `CC(=O)N[C@H]1CSCc2cc3cc(c2)CSC[C@H](NC(=O)[C@H](CCCNC(=N)N)N(C)C(=O)[C@H](Cc2ccc(O)cc2)NC(=O)[C@@H]2CCN2C(=O)[C@H](Cc2ccccc2)NC(=O)[C@H](CO)NC1=O)C(=O)N[C@@H](CC(C)C)C(=O)N[C@@H](Cc1c[nH]cn1)C(=O)N[C@@H](CCC(N)=O)C(=O)N[C@@H](CC(=O)O)C(=O)N[C@@H](CC(C)C)C(=O)N[C@H](C(N)=O)CSC3` [Peptide 5d] (Ac-CSF[Aze]Y[NMeR]CLHQDLC-NH2; linker 1-7-13 via TBMB), the Ki worked out at 0.55 ± 0.06 nM.

The same assay, now with this note: Ki, Ki = koff/kon from pre-equilibrium curves, 25 °C, pH 7.5, PKal 1 nM (0.25 nM for 4b), mean ± SD of at least 3 independent measurements.
As for `CC[C@H](C)[C@@H]1NC(=O)[C@H](CC(=O)O)NC(=O)[C@@H]2CCCN2C(=O)[C@H](Cc2ccc(O)cc2)NC(=O)[C@H](Cc2ccc(O)cc2)NC(=O)[C@H](C(C)C)NC(=O)[C@@H]2CSCc3cc(cc(c3)CSC[C@@H](C(=O)N[C@@H](C)C(=O)N(C)CC(=O)N(C)CC(=O)N(C)CC(=O)N[C@H](CCCNC(=N)N)C(=O)N[C@H](CCCNC(=N)N)C(N)=O)NC1=O)CSC[C@H](NC(C)=O)C(=O)N[C@@H](CO)C(=O)N[C@@H](Cc1ccccc1)C(=O)N1CC[C@H]1C(=O)N[C@@H](Cc1ccc(O)cc1)C(=O)N[C@@H](CCCCNC(=N)N)C(=O)N2` [Peptide 4b] (Ac-CSF[Aze]Y[hArg]CVYYPDICA[Sar][Sar][Sar][dR][dR]-NH2; linker 1-7-14 via TBMB), the inhibitory constant (Ki) worked out at 0.14 ± 0.02 nM.
